ChEMBL document CHEMBL1201862, “PubChem BioAssay data set” (2004)
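Exposure lasted 48 hours, with cells grown in 96-well plates and compounds tested at five concentrations. Here, GI50 denotes the concentration required for 50% inhibition of growth.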 Calls of active or inactive are those of the source. Rule as the data show it: active = GI50 up to about 1.1 µM and inactive = higher.

Experiments:
Test in all cases: growth of human tumour cells (NCI), 48 h
786-0 = tested on: 786-0
A549 = tested on: A549
ACHN = tested on: ACHN
BT-549 = tested on: BT-549
CAKI-1 = tested on: CAKI-1
CCRF-CEM = tested on: CCRF-CEM
COLO 205 = tested on: COLO 205
DU-145 = tested on: DU-145
EKVX = tested on: EKVX
HCC 2998 = tested on: HCC 2998
HCT-116 = tested on: HCT-116
HCT-15 = tested on: HCT-15
HL-60 = tested on: HL-60
HOP-62 = tested on: HOP-62
HT-29 = tested on: HT-29
Hs-578T = tested on: Hs-578T
IGROV-1 = tested on: IGROV-1
K562 = tested on: K562
KM12 = tested on: KM12
LOX IMVI = tested on: LOX IMVI
M14 = tested on: M14
MCF7 = tested on: MCF7
MDA-MB-231 = tested on: MDA-MB-231
MDA-MB-435 = tested on: MDA-MB-435
MDA-N = tested on: MDA-N
MOLT-4 = tested on: MOLT-4
Malme-3M = tested on: Malme-3M
NCI-H226 = tested on: NCI-H226
NCI-H23 = tested on: NCI-H23
NCI-H460 = tested on: NCI-H460
NCI-H522 = tested on: NCI-H522
NCI/ADR-RES = tested on: NCI/ADR-RES
OVCAR-3 = tested on: OVCAR-3
OVCAR-4 = tested on: OVCAR-4
OVCAR-5 = tested on: OVCAR-5
OVCAR-8 = tested on: OVCAR-8
PC-3 = tested on: PC-3
RPMI-8226 = tested on: RPMI-8226
RXF 393 = tested on: RXF 393
SF-268 = tested on: SF-268
SF-295 = tested on: SF-295
SK-MEL-28 = tested on: SK-MEL-28
SK-MEL-2 = tested on: SK-MEL-2
SK-MEL-5 = tested on: SK-MEL-5
SK-OV-3 = tested on: SK-OV-3
SN12C = tested on: SN12C
SNB-19 = tested on: SNB-19
SR = tested on: SR
SW-620 = tested on: SW-620
T47D = tested on: T47D
TK-10 = tested on: TK-10
U-251 = tested on: U-251
UACC-257 = tested on: UACC-257
UACC-62 = tested on: UACC-62
UO-31 = tested on: UO-31
HOP-92 = tested on: HOP-92
SF-539 = tested on: SF-539
SNB-75 = tested on: SNB-75

Measured: GI50

CN(C)CCc1ccnc2nc(-c3ccc4ccccc4c3)cn12
34.6 µM: HCT-15
inactive: 786-0 25 µM | A549 > 100 µM | ACHN 29.4 µM | BT-549 23.4 µM | CAKI-1 35.2 µM | CCRF-CEM 33.3 µM | COLO 205 33.3 µM | DU-145 45.2 µM | EKVX 38 µM | HCC 2998 18.5 µM | HCT-116 31.7 µM | HL-60 36.9 µM | HOP-62 56.9 µM | HT-29 17.8 µM | Hs-578T 17.8 µM | IGROV-1 23.9 µM | K562 79.8 µM | KM12 18.1 µM | LOX IMVI 25 µM | M14 47.8 µM | MCF7 34.7 µM | MDA-MB-231 28.8 µM | MDA-MB-435 33.3 µM | MDA-N 29.6 µM | MOLT-4 35.2 µM | Malme-3M 96.4 µM | NCI-H226 27.8 µM | NCI-H23 20.4 µM | NCI-H460 14.7 µM | NCI-H522 12 µM | NCI/ADR-RES 26.2 µM | OVCAR-3 25.8 µM | OVCAR-4 27.5 µM | OVCAR-5 47.1 µM | OVCAR-8 26.9 µM | PC-3 33.7 µM | RPMI-8226 > 100 µM | RXF 393 30.9 µM | SF-268 23 µM | SF-295 88.7 µM | SK-MEL-28 45.6 µM | SK-MEL-2 > 100 µM | SK-MEL-5 34.7 µM | SK-OV-3 38.5 µM | SN12C 26.8 µM | SNB-19 69.2 µM | SR 57.5 µM | SW-620 21.4 µM | T47D 34.9 µM | TK-10 15.7 µM | U-251 38.2 µM | UACC-257 36.3 µM | UACC-62 44.5 µM | UO-31 52.6 µM

CC1=CC(=O)/C(=C/n2c(=S)[nH]c3ccc([N+](=O)[O-])cc32)C(=O)O1
inactive: 786-0 > 100 µM | A549 > 100 µM | ACHN > 100 µM | BT-549 > 100 µM | CCRF-CEM > 100 µM | COLO 205 > 100 µM | DU-145 > 100 µM | EKVX > 50.1 µM | HCC 2998 > 100 µM | HCT-116 > 100 µM | HL-60 2.09 µM | HOP-62 > 100 µM | HOP-92 > 100 µM | HT-29 > 100 µM | Hs-578T > 100 µM | IGROV-1 > 100 µM | K562 > 100 µM | KM12 > 100 µM | LOX IMVI > 100 µM | M14 > 100 µM | MCF7 > 100 µM | MDA-MB-231 > 100 µM | MDA-MB-435 > 100 µM | MDA-N > 100 µM | MOLT-4 > 100 µM | NCI-H226 > 100 µM | NCI-H23 > 100 µM | NCI-H460 > 100 µM | NCI-H522 > 100 µM | NCI/ADR-RES > 100 µM | OVCAR-3 > 100 µM | OVCAR-4 > 100 µM | OVCAR-5 > 100 µM | OVCAR-8 > 100 µM | PC-3 > 100 µM | RPMI-8226 > 100 µM | RXF 393 > 100 µM | SF-268 > 100 µM | SF-295 > 100 µM | SF-539 > 100 µM | SK-MEL-28 > 100 µM | SK-MEL-2 > 100 µM | SK-MEL-5 > 100 µM | SK-OV-3 > 100 µM | SN12C > 100 µM | SNB-19 > 100 µM | SNB-75 > 100 µM | SR > 100 µM | SW-620 > 100 µM | T47D > 100 µM | TK-10 > 100 µM | U-251 > 100 µM | UACC-257 > 100 µM | UACC-62 > 100 µM | UO-31 > 100 µM
> 100 µM: HCT-15
